Each structure is given as a SMILES string.

The target in test [1] is T1, DXP synthase (Escherichia coli, UniProt P77488).
T1 sequence (P77488 1-620): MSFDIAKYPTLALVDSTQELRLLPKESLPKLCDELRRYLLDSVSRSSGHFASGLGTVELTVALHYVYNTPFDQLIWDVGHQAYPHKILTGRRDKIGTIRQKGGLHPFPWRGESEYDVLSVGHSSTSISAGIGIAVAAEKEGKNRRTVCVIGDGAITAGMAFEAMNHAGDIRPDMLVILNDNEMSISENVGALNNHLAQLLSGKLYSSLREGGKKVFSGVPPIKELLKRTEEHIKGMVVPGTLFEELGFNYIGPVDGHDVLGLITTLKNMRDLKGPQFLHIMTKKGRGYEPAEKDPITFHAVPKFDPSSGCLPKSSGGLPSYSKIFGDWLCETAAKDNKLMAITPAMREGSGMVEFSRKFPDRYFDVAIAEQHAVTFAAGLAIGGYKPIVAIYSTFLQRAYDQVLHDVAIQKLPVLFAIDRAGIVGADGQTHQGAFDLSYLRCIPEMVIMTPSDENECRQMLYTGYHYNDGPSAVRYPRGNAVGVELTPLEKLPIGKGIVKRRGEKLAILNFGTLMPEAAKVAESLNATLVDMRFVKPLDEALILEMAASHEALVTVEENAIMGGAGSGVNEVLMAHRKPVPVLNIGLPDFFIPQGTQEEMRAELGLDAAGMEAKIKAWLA
Nature of the test: Aromatic aldehydes as DXP synthase acceptor substrates. It is filed as biochemical.

In a further test the target is T2, IspC (Escherichia coli, UniProt P45568).
T2 sequence (P45568 1-398): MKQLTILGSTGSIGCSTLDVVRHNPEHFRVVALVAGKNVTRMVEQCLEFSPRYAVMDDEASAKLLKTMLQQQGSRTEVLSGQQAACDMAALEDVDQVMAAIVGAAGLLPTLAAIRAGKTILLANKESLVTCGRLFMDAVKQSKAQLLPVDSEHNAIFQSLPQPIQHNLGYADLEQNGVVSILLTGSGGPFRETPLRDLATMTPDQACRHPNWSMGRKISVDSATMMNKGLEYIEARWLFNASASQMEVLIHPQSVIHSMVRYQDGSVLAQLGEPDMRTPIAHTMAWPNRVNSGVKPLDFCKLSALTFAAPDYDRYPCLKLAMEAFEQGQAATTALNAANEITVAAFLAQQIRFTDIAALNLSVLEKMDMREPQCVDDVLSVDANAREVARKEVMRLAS
The test can be described thus: Inhibition of the coupling enzyme IspC by BnAP. It is filed as biochemical. The conditions noted are these: up to 1.5 mM.

For another test, the system named is Porcine PDH E1 subunit. Nature of the test: Kinetic parameters of nitroso substrates with PDH. Format: biochemical. As to conditions: read-out: PDH Km; 100 mM HEPES pH 8.0, 10-20 mM pyruvate, 10% DMSO, 37 °C; average ± SEM, triplicate.
In a further test the target is T3, E. coli DXP synthase (Escherichia coli, UniProt P77488).
T3 sequence (P77488 1-620): T1 sequence (P77488 1-620)
Format: biochemical. The conditions noted are these: 100 mM HEPES pH 8.0, 10-20 mM pyruvate, 10% DMSO, 37 °C; average ± SEM, triplicate.

A further test has as its system yeast TK. The conditions noted are these: cited from earlier work.
Test [2] has as its target DXP synthase (Escherichia coli, UniProt P77488). As to conditions: 0.5-5 mM nitroso substrate, 10-20 mM pyruvate, 37 °C, HPLC.

Turning to `O=Cc1c(O)cc([N+](=O)[O-])cc1[N+](=O)[O-]` [2-Hydroxy-4,6-dinitrobenzaldehyde], the catalytic constant (kcat) on DXP synthase [1] (aromatic aldehyde as acceptor substrate) came out at 0.00583 ± 0.00083 s⁻¹. For the same compound, on DXP synthase [1] (fold higher than D-GAP), the “Km relative to the natural substrate D-GAP” value is recorded as ~ 18 fold.

Regarding `CC(=O)P(=O)(O)OCc1ccccc1` [BnAP, benzylacetylphosphonate], on IspC, the “Inhibition of the coupling enzyme (IspC)” value is given as “not observed”.

Turning to `O=Nc1ccccc1` [Compound 1, nitrosobenzene], the Michaelis constant (Km) in the test on Porcine PDH E1 subunit was 350 ± 30 µM. Also, the kcat on E. coli DXP synthase turned out to be 2.92 ± 0.317 s⁻¹.

Consider `CN(C)c1ccc(N=O)cc1` [Compound 4], for which the Km with Porcine PDH E1 subunit worked out at 408 ± 60 µM. Moreover, on E. coli DXP synthase, the Km stood at 54 ± 13 µM and the kcat was determined as 0.015 ± 0.0017 s⁻¹. Besides, the “Substrate for yeast TK” value in the test on yeast TK is given as “not a substrate”. In addition, at DXP synthase [2], the “Substrate for DXP synthase (turnover)” value was “is a substrate”.

For `O=C[C@H](O)COP(=O)(O)O` [D-GAP, D-glyceraldehyde 3-phosphate, reference compound], the kcat at E. coli DXP synthase was determined as 1.7 ± 0.12 s⁻¹.

Values taken from PMC3767973 (Chembiochem : a European journal of chemical biology, 2013).
